The text below walks through data of patent US20190381500A1, “CELL CONTAINED CONTAINER AND CELL CONTAINED CONTAINER PRODUCING METHOD, AND CELL CHIP” (priority 2018, published 2019).

Data set [1] has as its system nerve cells C and nerve cells D (differentiated from human induced iPS cells). As to the kind of experiment: Drug efficacy screening (Hoechst 33342 / PI / Calcein AM staining, fluorescence microscope cell counting) in cell contained container 2. In kind it is cell-based. The following applies: for Living cells / Dead cells: next day after addition. As for the experimental part: The amount of the drug solution used was from 50 μL through 5,000 μL.
On the next day after the drug solution was added, the culture medium in each concave of the cell contained container was removed, and the concaves were washed with Hank's balanced salt solution (HBSS, available from Thermo Fisher Scientific Inc.) (200 microliters) at room temperature. After washing, HOECHST 33342 (available from Thermo Fisher Scientific Inc.), PI (Propidium Iodide, available from Cosmo Bio Co., Ltd.), and CALSEIN AM (available from Takara Bio Inc.) were each diluted 1,000-fold with HBSS, to prepare a stain mixture liquid, and the prepared stain mixture liquid was added in an amount of 200 microliters each. The cell contained container was then left to stand still in a 5% CO2 incubator for 20 minutes.
A fluorescence microscope image of the cell stained container after staining was completed was captured with a fluorescence microscope. The obtained fluorescence microscope image was processed with image processing software IMAGE J, to calculate the number of cells and the number of dead cells.

The subject of data set [2] is nerve cells C and nerve cells D. It is filed as cell-based, human. The following applies: 100, 160, 220 micromoles; 20 hours; FIG. 23. How it is done: N9 culture media (available from Elixirgen Scientific, LLC) to which zinc chloride as a test substance at four concentration conditions of 0 micromoles, 100 micromoles, 160 micromoles, and 220 micromoles was added respectively were added in the evaluation container of Production example 2 in an amount of 100 microliters with a micropipette, and the container was left to stand still overnight (for 20 hours) in a CO2 incubator at 37 degrees C.
Next, in order to evaluate the influence of zinc chloride on the cell survival rate, a WST-1 reagent (product name: PREMIX WST-1 CELL PROLIFERATION ASSAY SYSTEM, available from Takara Bio Inc.) was added in an amount of 10 microliters per well (concave), and left to stand still for 1 hour in an CO2 incubator at 37 degrees C. to be allowed to undergo reaction. Subsequently, absorbances at 450 nm, and as a reference value, at 570 nm were measured with a plate reader (instrument name: CYTATION 5, available from Bio Tek Instruments Inc.), to evaluate “cell survival rate”. The results are plotted in FIG. 23.

The test system is the same in data set [3]. In kind it is cell-based, human. The following applies: 100, 160, 220 micromoles; 20 hours; FIG. 24. As for the experimental part: In the same manner as in the evaluation of the cell survival rate, the N9 culture medium to which zinc chloride was added as described above was added, and the container was left to stand still overnight (for 20 hours) in a CO2 incubator at 37 degrees C.
In order to evaluate the influence of zinc chloride on cell membrane damage, only the culture medium was recovered with a micropipette and put in a 96-well cell contained container, a LDH assay reagent (product name: CYTOTOXICITY DETECTION KIT, available from Roche) was further added to each, and the resultant was allowed to undergo reaction at room temperature (23 degrees C.) for 5 minutes. Subsequently, absorbances at 492 nm, and as a reference value, at 620 nm were measured with a plate reader, to evaluate “cell membrane damage rate”. The results are plotted in FIG. 24.

The test system of data set [4] is IL-8 production of nerve cells C and nerve cells D. As to the kind of experiment: Cytotoxicity evaluation: inflammatory substance production (IL-8 ELISA). The following applies: 100, 160, 220 micromoles; 20 hours; FIG. 25. It is filed as cell-based, human. As for the experimental part: In the same manner as in the evaluation of the cell survival rate, a N9 culture medium (available from Elixirgen Scientific, LLC) to which zinc chloride was added was added, and the container was left to stand still overnight (for 20 hours) in a CO2 incubator at 37 degrees C.
In order to evaluate the influence of zinc chloride on inflammatory substance production, only the culture medium was recovered with a micropipette. IL-8 production was measured by ELISA method using a protein measurement kit (product name: HUMAN IL-8 ELISA READY-SET-GO! (registered trademark), available from Affymetrix), and absorbances at 450 nm, and as a reference value, at 570 nm were measured with a plate reader. The results are plotted in FIG. 25.

Setting [5] is: drug concentration 0.1 micromoles.
The mark [6] stands for this setting: drug concentration 0.3 micromoles.
[7] abbreviates: drug concentration 1.0 micromoles.
Where [8] appears, read: drug concentration 3.0 micromoles.
Setting [9] is: drug concentration 10 micromoles.

On to `CN[C@@H]1C[C@H]2O[C@@](C)([C@@H]1OC)n1c3ccccc3c3c4c(c5c6ccccc6n2c5c31)C(=O)NC4` [STAUROSPORINE], for which the “Drug efficacy rate (living cells/dead cells)” value in data set [1] (setting [5]) is reported as 70%; in data set [1] (setting [6]) it was 57%; in data set [1] (setting [7]), 54%; in data set [1] (setting [8]), 42%; in data set [1] (setting [9]), 2%. Moreover, the Living cells is on record as 271 cell in data set [1] (setting [5]); 270 cell in data set [1] (setting [6]); 268 cell in data set [1] (setting [7]); 197 cell in data set [1] (setting [8]); 11 cell in data set [1] (setting [9]). Moreover, the Dead cells is reported as 202 cell in data set [1] (setting [6]), 270 cell in data set [1] (setting [8]) and 474 cell in data set [1] (setting [9]).

Consider `[Cl-].[Cl-].[Zn+2]` [zinc chloride], for which the “cell survival rate, nerve cells C compared with nerve cells D” value in data set [2] is on record as “almost the same toxic response tendency”. In data set [3], the “cell membrane damage rate, nerve cells C compared with nerve cells D” value is listed as “almost the same toxic response tendency”. Also, the “inflammatory substance production (IL-8), nerve cells C compared with nerve cells D” value in data set [4] is recorded as “almost the same toxic response tendency”.
